Our source for the TGI and GI50 values is PubChem BioAssay (NCI).

Values joined by “and” are separate entries in the source; they are usually repeats but may differ in a detail not shown here. Identical values can stand only once.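 In this assay, cells in 96-well plates receive the compound at five concentrations for 48 hours. Endpoints are linearly interpolated between the surrounding concentrations. GI50 is the concentration that inhibits growth by half. TGI denotes the concentration required for complete inhibition of growth.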

Common to all, as to experiment: DTP human tumour cell line panel, 48 h
Test [1] has as its system A549 NSCLC.
For test [2], the system named is BT-549 breast.
In test [3] the test system is HL-60(TB) leukemia.
Test [4] concerns MCF7 breast.
Test [5] deals with MDA-MB-231 breast.
The subject of test [6] is MOLT-4 leukemia.
Test [7] concerns OVCAR-4 ovarian.
The subject of test [8] is OVCAR-8 ovarian.
Test [9] concerns PC-3 prostate.
Test [10] relates to SF-539 CNS.

Take `CCOC(=O)c1c(C)n(CCN2CCN(C)CC2)c2ccc(OC)cc12`: the total growth inhibition concentration (TGI) was greater than 100 µM in test [1]; greater than 100 µM in [2]; 58 µM in [3]; greater than 100 µM in [4]; greater than 100 µM in test [5]; 68 µM in test [6]. For the same compound, the TGI in test [7] was greater than 100 µM; in test [8], greater than 100 µM; in test [9] it was greater than 100 µM; in test [10] it was 87.1 µM.

`NC(=O)Nc1n[nH]c(-c2ccccc2)n1`: the concentration for total growth inhibition (TGI) in test [1], in test [2], in test [3], in test [4], in [5] and in [6] was greater than 100 µM each time. Moreover, the TGI in test [7], in test [8], in test [9] and in test [10] was greater than 100 µM throughout.

Regarding `CCOC(=O)C1C2C1C1C(C(=O)OCC)C21` (centres undefined), the TGI in test [1], in [2], in test [3], in test [4], in test [5] and in test [6] was greater than 100 µM each time. Besides, the TGI in test [7], in test [8], in test [9] and in [10] was greater than 100 µM throughout.

Regarding `Cc1nc2ccccc2n1CCc1nc2ccccc2[nH]1`, the TGI in [1], in test [2], in [3], in test [4], in test [5] and in test [6] was greater than 100 µM throughout. The TGI in [7], in test [8], in test [9] and in test [10] was greater than 100 µM in each case.

With `COc1cc(/C=C/C=C2\CC(C)C/C(=C\C=C\c3ccc(O)c(OC)c3)C2=O)ccc1O` (centres undefined), the TGI in [1] was greater than 100 µM; in test [2] it was 27.3 µM; in [3], 33.8 µM; in test [4], 42 µM; in [5], 32.4 µM; in test [6], 29.6 µM. Further, the TGI in test [7] was found to be 39.9 µM; in [8] it was 30.9 µM; in test [9] it was 48.8 µM; in test [10], 82.3 µM.

Turning to `Cc1nc(-c2ccc(Cl)cc2)cn2c1nc1ccccc12`, the TGI is greater than 100 µM in test [1]; greater than 100 µM in test [2]; greater than 31.6 µM in test [3]; greater than 100 µM in test [4]; greater than 100 µM in [5]; greater than 100 µM in test [6]. Further, the concentration for total growth inhibition (TGI) in [7], in test [8], in test [9] and in test [10] was greater than 100 µM in each case.

For the compound `CCSc1nn(-c2c3ccccc3nc3ccccc23)c(=S)s1`, the concentration for total growth inhibition (TGI) in [1], in [2], in test [3], in test [4], in test [5] and in [6] was greater than 100 µM throughout. The TGI in [7], in test [8], in test [9] and in test [10] was greater than 100 µM in each case.

For `C1CN(C23OC4(N5CCOCC5)C5C6CC(C7C6C4C72)C53)CCO1` (centres undefined), the TGI in [1], in test [2], in [3], in [4], in test [5] and in test [6] was greater than 100 µM in each case. Also, the TGI in [7], in test [8], in test [9] and in test [10] was greater than 100 µM in each case.

`CC1(C)CN=C(c2ccc3ccccc3c2O)N1`: the TGI in test [1], in test [2], in test [3], in test [4], in [5] and in test [6] was greater than 100 µM throughout. The TGI in [7], in [9] and in test [10] was greater than 100 µM in each case.

Turning to `COc1ccc(C2=C(N)c3ccccc3C2=O)cc1`, the TGI in [1], in [2], in test [3], in test [4], in test [5] and in test [6] was greater than 100 µM each time. The TGI in [7], in [8], in test [9] and in [10] was greater than 100 µM in each case.

On to `Nc1ncnc2c(C3OC(CO)C(O)C3O)c[nH]c12` (centres undefined), for which the TGI in test [1] is 0.0775 µM and 0.434 µM; in test [2], 0.237 µM and 0.297 µM; in test [4] it was 0.0807 µM; in test [5], greater than 100 µM; in test [7], 0.705 µM and 0.741 µM; in test [8], 0.0845 µM and 0.771 µM. For the same compound, the TGI in [9] was 0.128 µM and 0.324 µM; in [10], 0.0546 µM and 0.0374 µM. The GI50 in test [3] was 0.000721 µM; in [10] it was less than 0.0117 µM.

For `C=C1C[C@]23CC[C@@H]4C(CO)(CO)CC(=O)C[C@]4(C)[C@@H]2C(O)C[C@H]1C3` (some centres undefined), the TGI in [1], in [2], in test [3], in [4], in test [5] and in test [6] was greater than 100 µM each time. Further, the TGI in [7], in [8], in [9] and in [10] was greater than 100 µM each time.

Consider `CC(CN(C)C)C(O)(c1ccccc1)c1ccccc1` (centres undefined), for which the concentration for total growth inhibition (TGI) in [1], in test [2], in test [3], in test [4], in [5] and in test [6] was greater than 100 µM throughout. The total growth inhibition concentration (TGI) in [7], in test [8], in test [9] and in [10] was greater than 100 µM in each case.

The TGI is the concentration giving total growth inhibition. The GI50 is the concentration at which growth is held to half of that of the control.
